Laboratory results reported in patent US8486373B2, “Intramolecularly-quenched near infrared fluorescent probes” (The General Hospital Corporation, priority 1998, dated 2013).

Assay: Properties of commercially-available near infrared fluorochromes
Type: physicochemical
Details: Cy5.5 free in solution, FIG. 3A
Excerpt: Fluorescent probes with excitation and emission wavelengths in the near infrared spectrum are used, i.e., 650-1300 nm. Use of this portion of the electromagnetic spectrum maximizes tissue penetration and minimizes absorption by physiologically abundant absorbers such as hemoglobin (<650 nm) and water (>1200 nm). […] Table 1 summarizes information on the properties of six commercially-available near infrared fluorochromes, whose structures are shown in FIGS. 2A and 2B.

emission wavelength / peak emission: 694 nm
Substance: Cy5.5
